Results on 13 molecules are retold here after patent publication US5668173A, “Method of increasing the conversion of homocysteine to methionine and uses thereof” (priority 1996, dated 1997).

The subject of data set [1] is betaine-homocysteine methyltransferase. The note with it: cited from earlier work; for methionine produced compared with betaine as methyl donor: saturating levels of substrates, corrected for enzyme concentration.
The test system of a further data set is animals. The note with it: prior studies; cited from earlier work.
For the next data set, the system named is growing rats. The note with it: cited from earlier work; for replacement of dietary requirement for choline: growing rats, diets lacking methionine but containing homocystine; for food intake and growth: thetins 0.5-0.93% (w/w) of the diet, 3 to 4 weeks.
For data set [2], the system named is horse betaine-homocysteine methyltrasferase. The note with it: saturating levels of substrate; purified horse enzyme; cited from earlier work.
For data set [3] the following is noted: sulfur amino acid intake optimal; cited from earlier work.
Data set [4] has as its system hepatic betaine-homocysteine methyltransferase. The note with it: surfeit dietary levels, crude liver extracts, compared to control; cited from earlier work.
For data set [5] the following is noted: high dietary levels; cited from earlier work.
For another data set, the system named is Escherichia coli. The note with it: cited from earlier work.
In data set [6] the target is T1, pig liver betaine-homocysteine methyltransferase (Sus scrofa, UniProt A0A5G2RCW6).
T1 construct: given as hexamer, now known as homotetramer
T1 sequence (A0A5G2RCW6 1-407): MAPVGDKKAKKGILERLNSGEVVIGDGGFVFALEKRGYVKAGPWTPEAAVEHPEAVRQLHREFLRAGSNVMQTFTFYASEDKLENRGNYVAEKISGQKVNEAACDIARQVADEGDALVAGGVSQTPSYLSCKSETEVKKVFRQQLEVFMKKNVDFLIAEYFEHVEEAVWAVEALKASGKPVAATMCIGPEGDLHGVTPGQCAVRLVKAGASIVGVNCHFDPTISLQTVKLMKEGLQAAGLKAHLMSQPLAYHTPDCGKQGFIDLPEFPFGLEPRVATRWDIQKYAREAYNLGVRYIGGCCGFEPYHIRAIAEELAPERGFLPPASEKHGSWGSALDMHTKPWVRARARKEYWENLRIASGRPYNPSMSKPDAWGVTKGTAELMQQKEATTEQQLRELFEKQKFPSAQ
The experiment in a line: Initial rate kinetics of purified pig liver betaine-homocysteine methyltransferase. It is filed as biochemical. The note with it: for Vmax(rel): Table II, relative, corrected for an equivalent amount of enzyme. As to the method: (§1) Betaine-homocysteine methyltransferase activity was measured as described by Finkelstein and Mudd (43) with the following minor modifications. […] Following a 2 hour incubation, samples were chilled to 0° C. and 2.5 mL ice-cold water was added. The samples were loaded onto a 0.5 cm (diameter) column containing 1 mL of Dowex 1-X4 (OH--) resin (100-200 mesh). The unreacted betaine (or dimethylacetothetin) was washed from the column with water (3×5 mL), and dimethylglycine (or methylthioacetate) and methionine eluted into scintiallation vials with 3 mL 1.5 N HCl. Blanks contained all of the reaction components except enzyme and their values were subtracted from the sample values. All samples were assayed in duplicate.
Michealis and Vmax constants were estimated from plotting initial rate data according to the method of Hanes (44).
Betaine-homocysteine methyltransferase has been purified to homogeneity from pig liver (45).
Using purified enzyme, initial rate studies were performed to determine the Michaelis constants of betaine, dimethylacetothetin, and homocysteine and to investigate the kinetic mechanism of the enzyme.

In data set [7] the test system is human betaine-homocysteine methyltransferase. The note with it: cited from earlier work.
Data set [8] concerns the target T1, pig liver betaine-homocysteine methyltransferase. The experiment in a line: Product inhibition of pig liver betaine-homocysteine methyltransferase activity. It is filed as biochemical. The note with it: for pmol methionine: inhibitor 50 μM, L-homocysteine 50 μM, betaine 25 μM. As to the method: as §1
The subsequent metabolism of these products could have significant effects on flux through the betaine-homocysteine methyltransferase reaction because the rate of product removal would determine whether a product accumulates enough to inhibit enzyme activity. When pharmacological doses of betaine is used for the treatment of severe hyperhomocyst(e)inemia, dimethylglycine oxidation appears to be insufficient, and as a result, dimethylglycine accumulates.
Inhibition pf pig liver betaine-homocysteine methyltransferase
activity by dimethyglycine ethylthoacetate in the presence of
It is possible that homocysteine, dimethylglycine, and betaine-homocysteine methyltransferase form an abortive ternary complex.

Data set [9] relates to rat betaine-homocysteine methyltransferase. The note with it: cited from earlier work.
The conditions of data set [10]: cited from earlier work; for urinary level during betaine treatment: urine.
Data set [11] deals with human betaine-homocysteine methyltransferase. The note with it: human enzyme containing extracts; read-out: Michealis constant; cited from earlier work.
In data set [12] the test system is chickens. The note with it: cited from earlier work.
Data set [13] concerns rat betaine-homocysteine methyltransferase. The note with it: rat enzyme containing extracts; read-out: Michealis constant; cited from earlier work.
The test system of the next data set is pigs. The note with it: dietary betaine; cited from earlier work.
Data set [14] relates to cystathionine-β-synthase deficiency. The note with it: cited from earlier work.
In data set [15] the test system is chickens. The note with it: dietary; cited from earlier work.
The subject of the next data set is primates. The note with it: infusion, 3 month period; cited from earlier work.
Another data set relates to cystathionine-β-synthase. The note with it: dietary cysteine increased; cited from earlier work.
Substrate in data set [16]: C[N+](C)(C)CC(=O)O
The experiment in a line: Initial rate kinetics of purified pig liver betaine-homocysteine methyltransferase. It is filed as biochemical. The note with it: other: saturating levels of one substrate while varying the other; betaine 250 μM or L-homocysteine 500 μM fixed.

Substrate in data set [17]: C[S+](C)CC(=O)O
Described as above. Format: biochemical. The note with it: other: saturating levels of one substrate while varying the other; betaine 250 μM or L-homocysteine 500 μM fixed.

Substrate in data set [18]: N[C@@H](CCS)C(=O)O
The experiment in a line: purified protein, by the assay type. The note with it: other: saturating levels of one substrate while varying the other; betaine 250 μM or L-homocysteine 500 μM fixed.

“Also recorded” adds a separate entry of the source. Where two headings read alike, the source gives them in different places.

Consider `C[S+](C)CCC(=O)O` [dimethylpropiothetin], for which, in data set [1] (previous studies), the “Vmax compared with betaine-dependent reaction” value is listed as “higher Vmax” and the “Vmax compared with dimethylacetothetin-dependent reaction” value is reported as “lower Vmax”. Besides, the “methionine produced compared with betaine as methyl donor” value in data set [1] was “more methionine was produced”. For the same molecule, the “toxicity to animals” value with animals is listed as “non-toxic to animals”. In addition, the “replacement of dietary requirement for choline” value (“replacement” below) with growing rats (listed as dimethylpropriothetin) is “can replace the dietary requirement for choline; also recorded: replace the dietary requirement for choline (or betaine)”. Moreover, in data set [2], the “increase in methionine production compared to betaine” value is reported as 54 fold.
Consider `CSCC[C@H](N)C(=O)O` [methionine], for which, in data set [3], the “absorbed methionine converted to cysteine or completely oxidized” value is given as “about 30%” and the “absorbed methionine retained by the animal” value was “about 70%”. Further, the “hepatic betaine-homocysteine methyltransferase activity” value in data set [4] was “higher levels of betaine-homocysteine methyltransferase activity”. For the same molecule, in data set [5], the “toxicity” value is “most toxic of all amino acids required for protein synthesis”.
Take `C[S+](C)CC(=O)O` [dimethylacetothetin]: the “methionine produced compared with betaine as methyl donor” value in data set [1] is given as “more methionine was produced”. Also, the “toxicity to animals” value with animals was “non-toxic to animals”. In addition, the “effectiveness as osmolyte compared with betaine” value in the data set on Escherichia coli is reported as “equally effective as betaine”. Also, the “Vmax(rel)” value in data set [6] is 7. For the same molecule, the “rate of methylation of homocysteine, faster than with betaine” value in data set [6] (equimolar concentrations as betaine, inferred from Vmax/Km) is reported as “at least 700%”. In data set [6] (greater than that for betaine), the “Vmax/Km compared with betaine” value turned out to be 7 fold. The “relative Vmax compared with betaine” value in [6] (greater than when betaine was used) is listed as 47 fold. The “specificity (Vmax/Km) compared with betaine” value in data set [6] (initial rate studies) is reported as “greater specificity”. The “replacement” value with growing rats is given as “can replace the dietary requirement for choline; also recorded: replace the dietary requirement for choline (or betaine)”. In data set [2], the “increase in methionine production compared to betaine” value is on record as 350 fold.
As for `CSCCC(=O)O` [3-methylthiopropionate], in data set [5], the “toxicity” value was “produces toxic symptoms identical to those produced by excess methionine consumption”.
Consider `CN(C)CC(=O)O` [dimethylglycine], for which, in data set [7] (10 μM dimethylglycine), the “inhibition of methionine production” value is 50%. The “inhibition of human betaine-homocysteine methyltransferase” value in [7] is “potent inhibitor”. Besides, in data set [8], the activity at 50 µM amounted to 30% and the pmol methionine came out at 208 pmol. For the same molecule, in data set [8] (Dixon plots, betaine 25 μM or 250 μM, L-homocysteine varied), the “type of inhibition relative to homocysteine” value is recorded as “uncompetitive inhibitor; also recorded: uncompetitive inhibition”. In addition, in data set [8] (product inhibition studies), the “inhibition of pig betaine-homocysteine methyltransferase” value is reported as “potent inhibitor”. Further, the “inhibition of rat betaine-homocysteine methyltransferase” value in [9] is “potent inhibitor”. In data set [10], the “urinary level during betaine treatment” value was “dramatic increase”.
With `C[N+](C)(C)CC(=O)O` [betaine], the Km is 25 to 50 µM in [11]; 20 to 50 µM in data set [1] (prior studies, source of enzyme not stated); 25 to 50 µM in [13]. In addition, the “Kcat of betaine-dependent reaction” value in data set [1] was “very low Kcat”. The “carcass fat” value in the data set on chickens [12] (dietary betaine, chickens) was “can reduce carcass fat”; in the data set on pigs, “can reduce carcass fat”. The “treatment of diarrhea and wet litter” value in the data set on chickens [12] (fowl) was “effective in the treatment of diarrhea and wet litter”. Also, the “Vmax(rel)” value in data set [6] is listed as 1. Further, the “hepatic betaine-homocysteine methyltransferase activity” value in data set [4] is reported as “higher levels of betaine-homocysteine methyltransferase activity”. The “replacement” value in the data set with growing rats was “can replace the dietary requirement for choline”. Also, in the data set on growing rats, the “food intake and growth” value is “not different among experimental groups”. Also, the “normalization of plasma homocysteine” value in data set [10] (betaine treatment of severe hyperhomocyst(e)inemia) was “rarely attained; also recorded: usually does not fall within the normal range; also recorded: does not usually lower plasma homocysteine to within the normal range”. Besides, the “plasma homocysteine” value in data set [10] (pharmacological doses of betaine, hyperhomocyst(e)inemia) is given as “reduce plasma homocysteine; also recorded: generally lowers plasma homocysteine compared to pretreatment levels”. Moreover, in data set [10], the “urinary level during betaine treatment” value is “dramatic increase”.
On to vitamin B6, for which, in data set [14], the “individuals non-responsive to vitamin B6” value was 50% and the “individuals responding to supplemental B6” value is “approximately 50%”.
In data set [8], `CSCC(=O)O` [methylthioacetate] gave an activity at 50 µM of 59% and a pmol methionine of 416 pmol. Further, in data set [8] (than dimethylglycine), the “affinity for betaine-homocysteine methyltransferase relative to dimethylglycine” value is reported as “lower affinity”.
For `O=S(=O)(O)O` [sulfate], the “cystine requirements” value in the data set with chickens [15] was “decrease cystine requirements”.
As to `N[C@@H](CCS)C(=O)O` [homocysteine], the Km in data set [11] and in [13] was 25 to 50 µM each time. Further, in the data set on primates, the “vascular lesions” value is listed as “vascular lesions have been induced in primates”.
With `C[N+](C)(C)CCO` [choline], in the data set on growing rats, the “food intake and growth” value is “not different among experimental groups”.
As to `N[C@@H](CS)C(=O)O` [cysteine], the “cystathionine-β-synthase activity and mRNA levels” value in the data set on cystathionine-β-synthase is “decrease”.

B1: pig liver betaine-homocysteine methyltransferase (Sus scrofa) (protein)
chain: MAPVGDKKAKKGILERLNSGEVVIGDGGFVFALEKRGYVKAGPWTPEAAVEHPEAVRQLHREFLRAGSNVMQTFTFYASEDKLENRGNYVAEKISGQKVNEAACDIARQVADEGDALVAGGVSQTPSYLSCKSETEVKKVFRQQLEVFMKKNVDFLIAEYFEHVEEAVWAVEALKASGKPVAATMCIGPEGDLHGVTPGQCAVRLVKAGASIVGVNCHFDPTISLQTVKLMKEGLQAAGLKAHLMSQPLAYHTPDCGKQGFIDLPEFPFGLEPRVATRWDIQKYAREAYNLGVRYIGGCCGFEPYHIRAIAEELAPERGFLPPASEKHGSWGSALDMHTKPWVRARARKEYWENLRIASGRPYNPSMSKPDAWGVTKGTAELMQQKEATTEQQLRELFEKQKFPSAQ
notes: given as hexamer, now known as homotetramer
As to B1, the results for the Km in data set [16], in data set [17] and in [18] were 23 µM, 155 µM and 32 µM, respectively.
